Our source for the Ki values is patent US7250442B2, “Dihydroindol-2-one derivatives as steroid hormone nuclear receptor modulators” (Eli Lilly and Company, priority 2003, dated 2007).

The target of the experiment is T1, human MR (Homo sapiens, UniProt P08235).
T1 construct: The full length human MR gene is cloned from a human kidney or human brain cDNA library; made in house; host or cells: Sf9 insect cells (baculovirus, pAcHLT transfer vector)
T1 sequence (P08235 1-984): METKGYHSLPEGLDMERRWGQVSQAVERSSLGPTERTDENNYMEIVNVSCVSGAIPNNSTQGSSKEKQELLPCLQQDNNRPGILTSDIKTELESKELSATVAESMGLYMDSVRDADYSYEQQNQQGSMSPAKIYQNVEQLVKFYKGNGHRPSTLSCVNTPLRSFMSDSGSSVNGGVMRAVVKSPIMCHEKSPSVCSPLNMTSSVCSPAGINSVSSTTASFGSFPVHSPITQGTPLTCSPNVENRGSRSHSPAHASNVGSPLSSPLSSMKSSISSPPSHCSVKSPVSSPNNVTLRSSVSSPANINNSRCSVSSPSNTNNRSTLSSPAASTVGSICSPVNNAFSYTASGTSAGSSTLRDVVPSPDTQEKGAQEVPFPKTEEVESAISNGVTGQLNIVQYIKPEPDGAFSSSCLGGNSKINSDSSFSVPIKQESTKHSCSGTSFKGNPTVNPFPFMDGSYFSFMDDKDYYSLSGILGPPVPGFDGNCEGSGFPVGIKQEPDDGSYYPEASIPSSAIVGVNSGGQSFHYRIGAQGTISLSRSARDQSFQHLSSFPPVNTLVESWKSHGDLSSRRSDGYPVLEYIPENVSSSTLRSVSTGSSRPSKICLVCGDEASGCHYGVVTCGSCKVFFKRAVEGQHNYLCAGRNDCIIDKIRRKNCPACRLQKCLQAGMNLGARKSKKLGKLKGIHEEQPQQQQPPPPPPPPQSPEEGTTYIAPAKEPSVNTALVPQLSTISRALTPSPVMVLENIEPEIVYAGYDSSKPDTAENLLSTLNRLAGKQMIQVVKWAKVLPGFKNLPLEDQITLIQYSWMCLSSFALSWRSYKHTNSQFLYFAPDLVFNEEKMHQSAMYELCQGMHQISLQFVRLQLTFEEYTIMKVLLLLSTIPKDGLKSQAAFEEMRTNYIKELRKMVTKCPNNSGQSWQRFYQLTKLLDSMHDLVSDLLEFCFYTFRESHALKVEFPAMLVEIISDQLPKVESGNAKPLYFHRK
The experiment in a line: Mineralocorticoid Receptor Binding Assay ([3H]-aldosterone displacement). The note with it: full length human MR expressed in Sf9 cells, 0.5 nM [3H]-aldosterone. The method in brief:
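Full-length human MR expressed in Sf9 cells; lysate (20-25 μg protein) incubated with 0.5 nM [3H]-aldosterone and test compound in molybdate/Tris/phosphate/glycerol buffer pH 7.5, 16 h at 4 °C. Bound ligand measured by filtration and scintillation counting; IC50 converted to Ki via Cheng-Prusoff.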

Each structure is given as a SMILES string. Some results are limits rather than exact numbers.

One may read the Ki as a dissociation constant, usually derived from enzyme kinetics or from competition with a known ligand. Low values mean higher affinity, high ones lower affinity. For the compound `COc1cccc(N2C(=O)C(c3cc(C)c(O)c(C)c3)(c3cc(C)c(O)c(C)c3)c3ccccc32)c1` [Example 134, 3,3-Bis-(4-hydroxy-3,5-dimethyl-phenyl)-1-(3-methoxy-phenyl)-1,3-dihydro-indol-2-one], the Ki was not above 500 nM.

With `Cc1cc(C2(c3cc(C)c(O)c(C)c3)C(=O)N(c3cccnc3)c3ccccc32)cc(C)c1O` [Example 135, 3,3-Bis-(4-hydroxy-3,5-dimethyl-phenyl)-1-pyridin-3-yl-1,3-dihydro-indol-2-one], the Ki was not above 500 nM. The value for `Cc1cc(C2(c3cc(C)c(O)c(C)c3)C(=O)N(c3cccc(Br)c3)c3ccccc32)cc(C)c1O` [Example 139, 1-(3-Bromo-phenyl)-3,3-bis-(4-hydroxy-3,5-dimethyl-phenyl)-1,3-dihydro-indol-2-one] was not above 500 nM.
